Consider one molecule from patent publication US12419890B2, “Administration of sumo-activating enzyme inhibitor and checkpoint inhibitors” (Takeda Pharmaceutical Company Limited, priority 2019, dated 2025).

The assay deals with MC38 syngeneic mouse colon adenocarcinoma-derived subcutaneous tumor. Briefly: MC38 Study 8: mouse MC38 syngeneic tumor model, individual tumor volume. The assay is classed as in vivo. As to conditions: BIWx3 till Day 17. Here is the method: MC38 Study 8: MC38 is a mouse colon adenocarcinoma cell line. MC38 mouse syngeneic tumor model was generated by subcutaneous inoculation with 1.0×10^6 MC38 cells (cell suspension) in 11 weeks old female C57BL/6 mice (SINO-British SIPPR/BK Lab Animal Ltd., Shanghai, China) in the flank. When the mean tumor volume reached approximately 60 mm^3, the animals were randomized into one vehicle control and five treatment groups (n=8/group). Mice were then dosed with 20% HPbCD or Compound I-263a or anti-mouse PD-1 antibody over a 21-day period. Tumor growth and body weight were measured twice per week during the treatment and post-treatment periods, and mice were humanely euthanized once they had reached their humane endpoint.
Study 8: A 0.75 mg/mL stock solution of Compound I-263a was formulated weekly in 20% HPβCD and administered intravenously (IV) based on exact animal body weight on each day of treatment, using a dosing volume of 10 mL/kg body weight. Final doses received were 7.5 mg/kg. Dosing volume for Compound I-263a was 0.2 mL. […]
Tumors were measured twice weekly using vernier calipers. Tumor volumes were calculated using standard equation: V=W^2×L/2, where V=volume, W=width, and L=length for the tumor. […] Tumor size and body weight were measured twice a week for the duration of the study. […]

Take `Cc1sc(C(=O)c2cncnc2N[C@@H]2C[C@H](COS(N)(=O)=O)[C@@H](O)C2)cc1[C@@H]1NCCc2ccc(Cl)cc21` [Compound I-263a, [(1R,2S,4R)-4-{[5-({4-[(1R)-7-chloro-1,2,3,4-tetrahydroisoquinolin-1-yl]-5-methyl-2-thienyl}carbonyl)pyrimidin-4-yl]amino}-2-hydroxycyclopentyl]methyl sulfamate]: the “tumors with tumor growth delay” value runs as follows: (delay day 11-14, Compound I-263a 7.5 mg/kg IV or anti-mPD-1 10 mg/kg IP) 1; (delay from day 7-18, 8 implanted tumors, Compound I-263a 7.5 mg/kg IV alone or plus anti-mPD-1 10 mg/kg IP) 2.
